Results reported in patent US11603475B2, “Antifouling article” (I-Tech AB, priority 2017, dated 2023).

Tests used:
algal growth = conditions: in vivo; cited from earlier work
[1] = stirring
Method: This example investigated the solubility of SELEKTOPE® (I-Tech AB, Mölndal, Sweden) in 1,4-butandiol (Brenntag Nordic AB, Malmö, Sweden). Vials were prepared according to Table 1 and left with stirring.
Vial number 4 was prepared and left with stirring in a same way as vial numbers 1-3.

tube worms = conditions: in vivo; cited from earlier work
barnacle cyprid larva = conditions: barnacles; cited from earlier work

In the case of Cc1cccc(C(C)c2c[nH]cn2)c1C (racemic) [Medetomidine, (±)-4,5-[1-(2,3-dimethylphenyl)ethyl)-1H-imidazole], the “effect on algal growth” value (algal growth) is given as “no effect on algal growth”, the “dissolution in vial number 1” value ([1]; 97 mg SELEKTOPE in 1.007 g 1,4-butandiol, after 24 hours) is given as “all SELEKTOPE® had dissolved” and the “dissolution in vial number 2” value ([1]; 206 mg SELEKTOPE in 1.012 g 1,4-butandiol, 48 hours after preparation) is given as “all SELEKTOPE® material had dissolved”. The “dissolution in vial number 4” value ([1]; 247 mg SELEKTOPE in 1.009 g 1,4-butandiol, 24 hours after preparation (same at 48 hours)) was “a few non-dissolved grains remaining”, the “dissolution in vial number 3” value ([1]; 303 mg SELEKTOPE in 1.024 g 1,4-butandiol, after about 2 hours (same after 24 and 48 hours)) was “still a lot of non-dissolved SELEKTOPE®” and the “effect on other hard fouling, such as tube worms” value (tube worms) was “shown effect”. The “concentrations that impede larval settlement” value (barnacle cyprid larva) was 1 to 10 nM.
